Results reported in US10328085B2, “Cobalt porphyrins for the treatment of blood-related disorders” (UNIWERSYTET JAGIELLONSKI, priority 2014, dated 2019).

Key:
[1] = singlet oxygen generation by flash photolysis; format: physicochemical; details: laser light at 355 nm
Procedure: FIG. 7—singlet oxygen generation quantum yield (ΦΔ) for CoPP and SnPP in reference to phenalenone, measured by flash photolysis.
Because of the fact that potential described side effects of administration of porphyrins are associated with photosensitization, causing the formation of toxic reactive oxygen species, it was evaluated if CoPP is a photosensitizer and thus may cause side effects. To this end, the ability to generate reactive oxygen species by CoPP was verified by flash photolysis. […] In contrast, in experiment with another porphyrin (SnPP) 89% of absorbed energy was used for generation of singlet oxygen (FIG. 7). It is therefore unlikely that CoPP will cause photosensitization, what often limits the clinical application of other compounds from the group of porphyrins.

[2] = test system: C3H and C57BL6xFVB mice; assay: complete blood counts (hematology analyzer) in mice after CoPP; format: in vivo; details: for increase in number of granulocytes / increase in number of white blood cells (WBC) in blood compared to DMSO: three times at intervals of two days
Source text: The possibility of using CoPP for cell mobilization has been confirmed in experiments conducted on two different strains of mice: C3H (5 mice per group) and C57BL6xFVB (5-6 mice per group). The figures show:
FIG. 1—peripheral blood cell counts in C3H mice after administration of the test compounds (HCT—hematocrit, RBC—erythrocytes, WBC—leukocytes, LYM—lymphocytes, MON—monocytes, GRA—granulocytes, #—number of cells per mm^3, %—percentage of the population among all leukocytes; (ANOVA+Bonferroni test)
FIG. 2—peripheral blood cell counts in C57BL6xFVB strain after administration of CoPP; (test ANOVA+Bonferroni test)
(§1) CoPP was administered to mice intraperitoneally at a dose of 10 mg/kg of body weight, three times at intervals of two days. Control mice received only the solvent (DMSO). In one experiment tin protoporphyrin (SnPP) was also used.
(§2) The day after the last administration of CoPP the mice were sacrificed and samples were collected for analysis. Complete blood counts were obtained using a hematology analyzer. In addition, the phenotype and the quantity of leukocytes in the peripheral blood, bone marrow and spleen was analyzed in more detail using a flow cytometer. Moreover, concentrations of 32 cytokines and growth factors in plasma were analyzed. The results of analyzes indicate that mice that were treated with CoPP had increased number of white blood cells (WBC) in the blood compared to mice that received only DMSO (3-fold in C3H mice, 2-fold in C57BL6xFVB mice). In both strains, there was a significant increase in the number of granulocytes (6.7-fold in C3H mice, 4-fold in C57BL6xFVB mice). There were no changes in the parameters such as hematocrit (HCT) and the number of erythrocytes (RBC) (FIG. 1, FIG. 2)

[3] = test system: C3H and C57BL6xFVB mice; assay: flow cytometry of peripheral blood granulocytes in mice; format: in vivo
Source text: FIG. 3—the percentage of granulocytes in peripheral blood in C3H mice after administration of the test compounds; (test ANOVA+Bonferroni test),
FIG. 4—the percentage of granulocytes in the peripheral blood of C57BL6xFVB mice after administration of CoPP; (test ANOVA+Bonferroni test),
CoPP is used in scientific experiments, both in vitro and in vivo as heme oxygenase-1 inducer. […] In some of the experiments tin protoporphyrin IX (SnPP), which is an inhibitor of the enzymatic activity of HO-1, was also used.
as §1
as §2, with “In both strains, there was a significant increase in the number of granulocytes (6.7-fold in C3H mice, 4-fold in C57BL6xFVB mice). There were no changes in the parameters such as hematocrit (HCT) and the number of erythrocytes (RBC) (FIG. 1, FIG. 2)” left out

[4] = test system: cytokines and growth factors in plasma; assay: cytokines and growth factors in plasma (Luminex); format: in vivo, mice
Procedure: FIG. 5—concentration of cytokines and growth factors in plasma of C3H mice after administration of test compounds; (test ANOVA+Bonferroni test),
FIG. 6—concentration of cytokines and growth factors in plasma of C57BL6xFVB mice after administration of CoPP; (test ANOVA+Bonferroni test),
as §1, §2
In order to investigate the mechanism responsible for the increase of the leukocytes (especially granulocytes) number, after administration of CoPP, the concentrations of cytokines and growth factors in the plasma were measured using the Luminex system. An increase in levels of granulocyte colony stimulating factor (G-CSF), chemokines MCP-1 (CCL2) and IP-10 (CXCL-10) and interleukin 6 was observed (FIG. 5, FIG. 6).

[5] = test system: C57BL6xFVB mice; assay: HSPC mobilization to blood, CoPP compared with G-CSF; format: in vivo; details: CoPP 10 mg/kg (15 μmol/kg) vs rhG-CSF 250 μg/kg, i.p. daily for five days
Procedure: FIG. 8—HSPC numbers in the blood of C57BL6xFVB mice treated with G-CSF and CoPP.
Effects of CoPP and exogenous G-CSF were compared. Mice were iterated with CoPP at the dose of 10 mg/kg (15 μmol/kg). Recombinant human G-CSF (rhG-CSF, Amgen) was used at the dose of 250 μg/kg. Compounds were injected i.p. daily for five days. Administration od CoPP mobilized higher number of HSPC (hematopoietic stem/progenitor cells) than administration of exogenous G-CSF (FIG. 8).

[6] = solubility; format: physicochemical; details: alkaline aqueous solutions
Source text: Cobalt porphyrins can be prepared by known methods. For example, cobalt protoporphyrin IX can be prepared using methods as described in: “Porphyrins and Metalloporphyrins” Ed. by K. M. Smith, Elsevier Scientific Pub. Co (1975) ISBN 0-444-41375-8 oraz Kenner, G. W., et al., Liebigs Ann. Chem. 1973, 1329-1338 and Burns, D. H., et al., J. Chem. Soc., Perkin Trans. 1, 1988, 3119. […] In the production process and the preparation of a medical agent cobalt protoporphyrin is proposed to be dissolved in an alkaline solution (eg. 0.2 M Na3PO4.12H20; ˜0.2 ml/ml final volume) and then with sterile water (˜0.7 ml/ml final volume), pH adjusted to 7.5-7.8 (eg. 0.3N HCl).

[7] = both strains, 10 mg/kg i.p., three times

Row | generation of singlet oxygen upon absorption of laser light [1] | hematocrit (HCT) [2, 7] | number of erythrocytes (RBC) [2, 7] | solubility [6] | absorbed energy used for generation of singlet oxygen [1] | Structure (SMILES) | increase in number of granulocytes ([2]; C3H mice, 10 mg/kg i.p.) | increase in number of white blood cells (WBC) in blood compared to DMSO ([2]; C3H mice, 10 mg/kg i.p.) | increase in number of granulocytes ([2]; C57BL6xFVB mice, 10 mg/kg i.p.) | increase in number of white blood cells (WBC) in blood compared to DMSO ([2]; C57BL6xFVB mice, 10 mg/kg i.p.) | mobilization of cells from bone marrow in HO-1 KO mice ([3]; HO-1 KO versus wild type mice, FIG. 4) | number of immature granulocytes (CD11b+/Ly6G low/Ly6C-/SCC mid phenotype) ([3]; peripheral blood, flow cytometer) | plasma level of chemokine IP-10 (CXCL-10) [4] | plasma level of chemokine MCP-1 (CCL2) [4] | plasma level of granulocyte colony stimulating factor (G-CSF) [4] | plasma level of interleukin 6 [4] | number of HSPC mobilized compared with exogenous G-CSF [5] | effect on the measured parameters (blood counts, granulocytes, cytokines) ([2]; C3H mice, FIG. 1,3,5)
1 | does not generate singlet oxygen | no changes | no changes | soluble in alkaline aqueous solutions |  | C=Cc1c(C)c2cc3[nH]c(cc4nc(cc5nc(cc1[nH]2)C(C)=C5CCC(=O)[O-])C(CCC(=O)[O-])=C4C)c(C)c3C=C.[Co+2] [CoPP, cobalt protoporphyrin IX] | 6.7 fold | 3 fold | 4 fold | 2 fold | works in a similar manner as in wild type mice | increase | increase | increase | increase | increase | higher number | 
2 |  |  |  |  | 89% | C=Cc1c2[n-]c(c1C)/C=c1\[n-]/c(c(C)c1C=C)=C\c1[n-]c(c(CCC(=O)O)c1C)C=c1[n-]/c(c(C)c1CCC(=O)O)=C\2.[Sn+4] [SnPP, tin protoporphyrin IX, reference compound] |  |  |  |  |  |  |  |  |  |  |  | did not affect the majority of the measured parameters
